# Source: patent US20120316105A1, “Polymyxin Derivates Useful As Antibacterial Agents” (priority 2011, published 2012)
# Where two headings read alike, the source gives them in different places. Bridge positions count the residues as written; N and C are the ends. Square brackets hold non-standard residues; d marks the D form. Peptide text beside a SMILES is read from it. * marks the point of attachment. Isonicotinoyl(2-Ph) = O=C(c1ccnc(-c2ccccc2)c1)*; X1 = CC[C@H](C)CCCCC(=O)*; Dab = NCC[C@H](N)C(=O)O; Dap = NC[C@H](N)C(=O)O
# Assays:
# [1] = tested on: AB-1649, polymyxin-resistant clinical isolate of Acinetobacter baumannii; format: cell-based
# Summary of the method: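 MIC and MBC were measured by CLSI broth dilution methods (M7-A8, M100-S20, M26-A) against a polymyxin-resistant clinical isolate and reported in mg/L. Compounds were tested as trifluoroacetate salts, with one exception tested as the sulfate.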
# [2] = tested on: PA-1646, polymyxin-resistant clinical isolate of Pseudomonas aeruginosa; format: cell-based
# Summary of the method: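 Broth dilution MIC and bactericidal (MBC) testing per CLSI methods (M7-A8, M100-S20, M26-A) against polymyxin-resistant clinical P. aeruginosa isolate PA-1646. Compounds tested as trifluoroacetate salts, one as sulfate salt; values in mg/L.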
# [3] = tested on: EC-1, mouse virulent strain of Escherichia coli; format: cell-based; settings: E. coli EC-1; overnight incubation, lower of duplicate values; trifluoroacetate salt (Example 1 and PMB sulfate)
# Summary of the method: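 Compounds were tested mostly as trifluoroacetate salts. Duplicate CLSI broth-dilution MICs were read visually after overnight incubation over 2-fold dilutions, with the lower of duplicates within 2-fold taken. QC organisms and reference drugs were included in each run.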
# [4] = tested on: AB-1649, polymyxin-resistant clinical isolate of Acinetobacter baumannii; format: cell-based; remark: listed apart in the source
# Summary of the method: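 Broth dilution MIC per CLSI against the polymyxin-resistant A. baumannii isolate, 2-fold dilutions, overnight incubation, visual read of lowest concentration inhibiting growth. Run in duplicate, lower value reported when within 2-fold; MBC per CLSI M26-A guideline.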
# [5] = tested on: Pseudomonas aeruginosa strain PA01; format: cell-based
# Summary of the method: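 CLSI broth dilution against P. aeruginosa PA01 with two-fold concentration steps and overnight incubation; MIC is lowest concentration visibly inhibiting growth versus drug-free control, in mg/L. Compounds tested as trifluoroacetate salts, in duplicate, lower value reported if within 2-fold; control organisms and reference compounds included.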
# [6] = tested on: PA-1646, polymyxin-resistant clinical isolate of Pseudomonas aeruginosa; format: cell-based; remark: listed apart in the source
# Summary of the method: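 Broth dilution MIC per CLSI with 2-fold concentration steps, read visually after overnight incubation as lowest concentration inhibiting growth; duplicates within 2-fold, lower value reported, with QC strains and reference compounds. Compounds tested as trifluoroacetate salts, polymyxin B as sulfate.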
# [7] = tested on: AB-3167, clinical isolate of Acinetobacter baumannii; format: cell-based
# Summary of the method: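 Broth dilution MIC per CLSI (M7-A8, M100-S20, M26-A for bactericidal), 2-fold dilution series, overnight incubation, visual read of lowest concentration inhibiting growth versus drug-free control. Duplicates run; lower value reported if within 2-fold, otherwise repeated. Compounds tested as trifluoroacetate salts; QC strains and reference compounds required in range.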
# [8] = tested on: Human Renal Proximal Tubule Epithelial cells (hRPTEC); assay: Cytotoxicity assay (LDH release), hRPTEC; format: cell-based
# Summary of the method: (§1)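 hRPTEC grown 72 h in REGM, then exposed to compounds at 100, 67, 44, 30, 20 and 13 micromolar for 24 h at 37° C, 5% CO2. LDH released into supernatant measured; TC50 (micromolar) derived. Compounds tested as trifluoroacetate salts unless otherwise noted.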
# [9] = Cytotoxicity assay (LDH release), hRPTEC; format: cell-based, human; settings: for CC50 at 24 h: human
# Summary of the method: as §1
# [10] = tested on: KP-5016, ESBL+ clinical isolate of Klebsiella pneumoniae (SHV-5); assay: Minimum inhibitory concentration (MIC, CLSI), KP-5016; format: cell-based; settings: K. pneumoniae KP-5016; overnight incubation, lower of duplicate values; trifluoroacetate salt (Example 1 and PMB sulfate)
# Procedure: (§2) Minimum bactericidal concentration (MBC, mg/L), minimum inhibitory concentration (MIC, mg/L), and human renal proximal tubule epithelial cell line cytotoxicity concentration 50% (hRPTEC, TC50, micromolar) for compounds of Formula I are listed in Table 2. The compounds of Formula I were tested as the corresponding trifluoroacetate salt except for Example 1 which was tested as the sulfate salt. For Table 2 below: PMB=polymyxin B as the sulfate salt (Bedford Laboratories, pharmaceutical grade); PMB1=polymyxin B1 as the trifluoroacetate salt; Nona=polymyxin B nonapeptide as the trifluoroacetate salt. PMB1 and Nona were prepared using the solid phase methodology described in the experimental section herein.
# (§3) The in vitro antibacterial activity of compounds of Formula I was evaluated by MIC testing according to Clinical and Laboratory Standards Institute (CLSI). See: Clinical and Laboratory Standards Institute. Methods for Dilution Antimicrobial Susceptibility Tests for Bacteria that Grow Aerobically; Approved Standard-Eighth Edition. CLSI document M7-A8 [ISBN 1-56238-689-1]. Clinical and Laboratory Standards Institute, 940 West Valley Road, Suite 1400, Wayne, Pa. 19087-1898 USA, 2006; also Clinical and Laboratory Standards Institute. Performance Standards for Antimicrobial Susceptibility Testing; Twentieth Informational Supplement. CLSI document M100-S20 [ISBN 1-56238-716-2]. Clinical and Laboratory Standards Institute. Methods for Determining Bactericidal Activity of Antimicrobial Agents; Approved Guideline. CLSI document M26-A (ISBN 1-56238-384-1). CLSI, 940 West Valley Road, Suite 1400, Wayne, Pa. 19087-1898 USA, 1999.
# (§4) The MIC determination is a standard laboratory method for evaluating the antibacterial activity of a compound. The MIC represents the lowest drug concentration that inhibits visible growth of bacteria following overnight incubation. […] Typically, the drug concentration range is broken down into 2-fold increments (e.g. 0.06 mg/L, 0.12 mg/L, 0.25 mg/L, 0.50 mg/L, 1.0 mg/L, etc.) and the various drug concentrations are all individually incubated overnight with approximately the same number of bacteria. The MIC is then determined by visually inspecting the drug effect at each concentration, and identifying the lowest drug concentration that has inhibited bacterial growth as compared to the drug free control. Typically, bacteria continue to grow at drug concentrations lower than the MIC and don't grow at concentrations at and above the MIC.
# (§5) The MIC values described in Table 2 below were derived from assays wherein each test compound was evaluated in duplicate. In cases where the duplicate values varied by 0-2-fold, the lower of the two values was reported below. Generally speaking, if the duplicate values varied by more than 2-fold, the assay was considered non-valid and was repeated until the variation between duplicate runs was ≦2-fold. In line with the CLSI guidelines referred to above, both control organisms and reference compounds were utilized in each MIC assay to provide proper quality control. MIC values generated with these control organisms and reference compounds were required to fall within a defined range for the assay to be considered valid and be included herein. Those skilled in the art will recognize that MIC values can and do vary from experiment to experiment. Generally speaking, it should be recognized that MIC values often vary +/−2-fold from experiment to experiment. While a single MIC is reported for each compound and each microorganism, the reader should not conclude that each compound was only tested once. Several of the compounds were subjected to multiple tests. The data reported in Table 2 is reflective of the compounds relative activity and different MICs may have been generated on these occasions in line with the guidelines described above.
# The following bacterial strains were used in these MIC determinations: […]
# [11] = tested on: KP-3700, ESBL+ clinical isolate of Klebsiella pneumoniae; assay: Minimum inhibitory concentration (MIC, CLSI), KP-3700; format: cell-based; settings: K. pneumoniae KP-3700; overnight incubation, lower of duplicate values; trifluoroacetate salt (Example 1 and PMB sulfate)
# Procedure: as §2, §3, §4, §5
# The following bacterial strains were used in these MIC determinations:
# KP-3700 is an ESBL+clinical isolate of Klebsiella pneumoniae obtained in 2006; and […]
# [12] = AB-1649, polymyxin-resistant clinical isolate of
# [13] = PA-1646, polymyxin-resistant clinical isolate of
# [14] = A. baumannii AB-3167, overnight incubation, lower of duplicate values, trifluoroacetate salt (Example 1 and PMB sulfate)
# [15] = A. baumannii AB-1649, tested as trifluoroacetate salt (Example 1 and PMB as sulfate salt)
# [16] = P. aeruginosa PA-1646, tested as trifluoroacetate salt (Example 1 and PMB as sulfate salt)
# [17] = A. baumannii AB-1649, overnight incubation, lower of duplicate values, trifluoroacetate salt (Example 1 and PMB sulfate)
# [18] = P. aeruginosa PA01, overnight incubation, lower of duplicate values, trifluoroacetate salt (Example 1 and PMB sulfate)
# [19] = P. aeruginosa PA-1646, overnight incubation, lower of duplicate values, trifluoroacetate salt (Example 1 and PMB sulfate)
# [20] = hRPTEC, 24 hours treatment, LDH release, Toxic Concentration 50%, read-out: hRPTEC TC50
Compound,"AB-1649 MBC [1, 12]","PA-1646 MBC [2, 13]",EC-1 MIC [3],"AB-1649 MIC [4, 12]",PA01 MIC ([5]; strain),"PA-1646 MIC [6, 13]","AB-3167 MIC ([7]; AB-3167, clinical isolate of)",reduced human renal cytotoxicity compared with PMB [8],CC50 at 24 h [9],"AB-3167 MIC [7, 14]",KP-5016 MIC [10],KP-3700 MIC [11],CC50 [9],"AB-1649 MBC [1, 15]","PA-1646 MBC [2, 16]","AB-1649 MIC [4, 17]","PA01 MIC [5, 18]","PA-1646 MIC [6, 19]","CC50 at 24 h [9, 20]","CC50 [8, 20]"
CC(C)C[C@@H]1NC(=O)[C@@H](Cc2ccccc2)NC(=O)[C@H](CCN)NC(=O)[C@@H](NC(=O)[C@H](CN)NC(=O)[C@@H](NC(=O)[C@H](CCN)NC(=O)c2ccnc(-c3ccccc3)c2)[C@@H](C)O)CCNC(=O)[C@H]([C@@H](C)O)NC(=O)[C@H](CCN)NC(=O)[C@H](CCN)NC1=O [Example 1] ({Isonicotinoyl(2-Ph)}-[Dab]T[Dap][Dab][Dab][dF]L[Dab][Dab]T; lactam 4-C),1 µg/mL,4 µg/mL,0.125 µg/mL,1 µg/mL,0.25 µg/mL,2 µg/mL,0.25 µg/mL,4-5 fold,95 µM,–,–,–,–,–,–,–,–,–,–,–
CC[C@H](C)CCCCC(=O)N[C@@H](CCN)C(=O)N[C@H](C(=O)N[C@@H](CN)C(=O)N[C@H]1CCNC(=O)[C@H]([C@@H](C)O)NC(=O)[C@H](CCN)NC(=O)[C@H](CCN)NC(=O)[C@H](CC(C)C)NC(=O)[C@@H](Cc2ccccc2)NC(=O)[C@H](CCN)NC1=O)[C@@H](C)O [Example 43] (X1-[Dab]T[Dap][Dab][Dab][dF]L[Dab][Dab]T; lactam 4-C),4 µg/mL,2 µg/mL,0.125 µg/mL,4 µg/mL,0.5 µg/mL,1 µg/mL,–,3-4 fold,72 µM,0.125 µg/mL,–,–,–,–,–,–,–,–,–,–
"CC(C)C[C@@H]1NC(=O)[C@@H](Cc2ccccc2)NC(=O)[C@H](CCN)NC(=O)[C@@H](NC(=O)[C@H](CCN)NC(=O)[C@@H](N)[C@@H](C)O)CCNC(=O)[C@H]([C@@H](C)O)NC(=O)[C@H](CCN)NC(=O)[C@H](CCN)NC1=O [Nona, polymyxin B nonapeptide, reference compound] (H-T[Dab][Dab][Dab][dF]L[Dab][Dab]T; lactam 3-C (inferred))",>64 µg/mL,>64 µg/mL,>64 µg/mL,>64 µg/mL,>64 µg/mL,>64 µg/mL,>64 µg/mL,–,–,–,>64 µg/mL,>64 µg/mL,> 100 µM,–,–,–,–,–,–,–
"CC[C@H](C)CCCCC(=O)N[C@@H](CCN)C(=O)N[C@H](C(=O)N[C@@H](CCN)C(=O)N[C@H]1CCNC(=O)[C@H]([C@@H](C)O)NC(=O)[C@H](CCN)NC(=O)[C@H](CCN)NC(=O)[C@H](CC(C)C)NC(=O)[C@@H](Cc2ccccc2)NC(=O)[C@H](CCN)NC1=O)[C@@H](C)O [PMB1, polymyxin B1, reference compound] (X1-[Dab]T[Dab][Dab][Dab][dF]L[Dab][Dab]T; lactam 4-C)",–,–,0.125 µg/mL,–,–,–,–,–,–,0.25 µg/mL,16 µg/mL,0.5 µg/mL,–,4 µg/mL,16 µg/mL,4 µg/mL,0.5 µg/mL,4 µg/mL,28 µM,–
"polymyxin B [PMB, reference compound]",–,–,0.125 µg/mL,–,–,–,–,–,–,0.25 µg/mL,32 µg/mL,0.25 µg/mL,–,8 µg/mL,32 µg/mL,8 µg/mL,0.5 µg/mL,8 µg/mL,–,20 µM
